The values below come from patent US20140309265A1, “MACROCYCLIC COMPOUNDS FOR INHIBITION OF INHIBITORS OF APOPTOSIS” (Ensemble Therapeutics, priority 2011, published 2014).

In experiment [1] the target is T1, His-BIR2-3 (125-356, C202A/C213G, XIAP) (Homo sapiens, UniProt P98170, C202A/C213G).
T1 construct: additions of His-BIR2-3 (125-356, C202A/C213G, XIAP), fluorescein labeled dimeric SMAC peptide
Put plainly: XIAP-BIR2-3 Dimeric SMAC Peptide Homogeneous Time Resolved Fluorescence (HTRF) Assay. The following applies: XIAP BIR2-3, HTRF, Table 4. It is filed as binding. For orientation: Time-resolved FRET reads energy transfer from a long-lived donor to a nearby acceptor.

The target in the next experiment is T2, His-BIR3 (241-356, XIAP) (Homo sapiens, UniProt P98170).
T2 construct: additions of His-BIR3 (241-356, XIAP), fluorescein labeled SMAC peptide
The experiment is described as follows: XIAP-BIR3/SMAC Homogeneous Time Resolved Fluorescence (HTRF) Assay. The format is binding. The following applies: Table 4.

Some results are limits rather than exact numbers.

T1 sequence (P98170 125-356 C202A/C213G): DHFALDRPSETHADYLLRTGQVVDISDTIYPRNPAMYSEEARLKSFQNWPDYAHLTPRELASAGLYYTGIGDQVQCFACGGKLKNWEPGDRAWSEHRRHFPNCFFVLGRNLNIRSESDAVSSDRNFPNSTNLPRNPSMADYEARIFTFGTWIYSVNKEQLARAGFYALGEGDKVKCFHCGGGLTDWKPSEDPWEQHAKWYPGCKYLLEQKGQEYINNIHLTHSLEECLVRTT
T2 sequence (P98170 241-356): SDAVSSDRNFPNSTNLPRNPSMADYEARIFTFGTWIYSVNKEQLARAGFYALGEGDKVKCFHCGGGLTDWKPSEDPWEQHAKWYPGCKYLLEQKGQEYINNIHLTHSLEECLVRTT

For the compound `CN[C@@H](C)C(=O)N[C@H](C(=O)N1C[C@@H]2C[C@H]1C(=O)N[C@@H](Cc1ccc3ccccc3c1)C(=O)N[C@H](C(=O)O)Cc1ccc(cc1)OCc1cn(nn1)[C@H]1C[C@@H](C(=O)N[C@@H](Cc3ccc4ccccc4c3)C(=O)N[C@H](C(=O)NCc3ccc(-c4nnn[nH]4)cc3)Cc3ccc(cc3)OCc3cn2nn3)N(C(=O)[C@@H](NC(=O)[C@H](C)NC)C(C)(C)C)C1)C(C)(C)C` [Compound 1023], the half-inhibitory concentration (IC50) – broadly, the concentration at which inhibition is half-maximal – is 1 to 10 nM in experiment [1] and less than 10 nM on His-BIR3 (241-356, XIAP).
With `CN[C@@H](C)C(=O)N[C@H](C(=O)N1C[C@@H]2C[C@H]1C(=O)N[C@@H](Cc1ccc3ccccc3c1)C(=O)N[C@H](C(=O)O)Cc1ccc(cc1)OCc1cn(nn1)[C@H]1C[C@@H](C(=O)N[C@@H](Cc3ccc4ccccc4c3)C(=O)N[C@H](C(=O)NCc3cc(F)c(OC)c(F)c3)Cc3ccc(cc3)OCc3cn2nn3)N(C(=O)[C@@H](NC(=O)[C@H](C)NC)C(C)(C)C)C1)C(C)(C)C` [Compound 1040], the IC50 in experiment [1] is more than 10 nM; at His-BIR3 (241-356, XIAP), more than 100 nM.
For `CN[C@@H](C)C(=O)N[C@H](C(=O)N1C[C@@H]2C[C@H]1C(=O)N[C@@H](Cc1ccc3ccccc3c1)C(=O)N[C@H](C(=O)O)Cc1ccc(cc1)OCc1cn(nn1)[C@H]1C[C@@H](C(=O)N[C@@H](Cc3ccc4ccccc4c3)C(=O)N[C@H](C(=O)O)Cc3ccc(cc3)OCc3cn2nn3)N(C(=O)[C@@H](NC(=O)[C@H](C)NC)C23CC4CC(CC(O)(C4)C2)C3)C1)C12CC3CC(CC(O)(C3)C1)C2` [Compound 1009], the half-inhibitory concentration (IC50) in experiment [1] is 1 to 10 nM; at His-BIR3 (241-356, XIAP), less than 10 nM.
As for `CN[C@@H](C)C(=O)N[C@H](C(=O)N1C[C@@H]2C[C@H]1C(=O)N[C@@H](Cc1ccc3ccccc3c1)C(=O)N[C@H](C(=O)O)Cc1ccc(cc1)OCc1cn(nn1)[C@H]1C[C@@H](C(=O)N[C@@H](Cc3ccc4ccccc4c3)C(=O)N[C@H](C(=O)NS(=O)(=O)CCCNC(C)=O)Cc3ccc(cc3)OCc3cn2nn3)N(C(=O)[C@@H](NC(=O)[C@H](C)NC)C(C)(C)C)C1)C(C)(C)C` [Compound 1052], the IC50 in experiment [1] is not above 1 nM; at His-BIR3 (241-356, XIAP), less than 10 nM.
The like results for `CN[C@@H](C)C(=O)N[C@H](C(=O)N1C[C@@H]2C[C@H]1C(=O)N[C@@H](Cc1ccc3ccccc3c1)C(=O)N[C@H](C(=O)O)Cc1ccc(cc1)OCc1cn(nn1)[C@H]1C[C@@H](C(=O)N[C@@H](Cc3ccc4ccccc4c3)C(=O)N[C@H](C(=O)NCC(=O)O)Cc3ccc(cc3)OCc3cn2nn3)N(C(=O)[C@@H](NC(=O)[C@H](C)NC)C(C)(C)C)C1)C(C)(C)C` [Compound 1018] were, in that order, 1 to 10 nM and less than 10 nM.
Take `CN[C@@H](C)C(=O)N[C@H](C(=O)N1C[C@@H]2C[C@H]1C(=O)N[C@@H](Cc1ccc3ccccc3c1)C(=O)N[C@H](C(=O)O)Cc1ccc(cc1)OCc1cn(nn1)[C@H]1C[C@@H](C(=O)N[C@@H](Cc3ccc4ccccc4c3)C(=O)N[C@H](C(=O)NS(=O)(=O)c3ccncc3)Cc3ccc(cc3)OCc3cn2nn3)N(C(=O)[C@@H](NC(=O)[C@H](C)NC)C(C)(C)C)C1)C(C)(C)C` [Compound 1046]: the IC50 in experiment [1] is not above 1 nM; against His-BIR3 (241-356, XIAP), less than 10 nM.
As to `CN[C@@H](C)C(=O)N[C@H](C(=O)N1C[C@@H]2C[C@H]1C(=O)N[C@@H](Cc1ccc3ccccc3c1)C(=O)N[C@H](C(=O)O)Cc1ccc(cc1)OCc1cn(nn1)[C@H]1C[C@@H](C(=O)N[C@@H](Cc3ccc4ccccc4c3)C(=O)N[C@H](c3nnn[nH]3)Cc3ccc(cc3)OCc3cn2nn3)N(C(=O)[C@@H](NC(=O)[C@H](C)NC)C(C)(C)C)C1)C(C)(C)C` [Compound 1048], the IC50 in experiment [1] is not above 1 nM; against His-BIR3 (241-356, XIAP), less than 10 nM.
Regarding `CN[C@@H](C)C(=O)N[C@H](C(=O)N1C[C@@H]2C[C@H]1C(=O)N[C@@H](Cc1ccc3ccccc3c1)C(=O)N[C@H](C(=O)O)Cc1ccc(cc1)OCc1cn(nn1)[C@H]1C[C@@H](C(=O)N[C@@H](Cc3ccc4ccccc4c3)C(=O)N[C@H](C(=O)N3CCC(C(=O)O)C3)Cc3ccc(cc3)OCc3cn2nn3)N(C(=O)[C@@H](NC(=O)[C@H](C)NC)C(C)(C)C)C1)C(C)(C)C` (stereo partly shown) [Compound 1021], the 50% inhibitory concentration (IC50) in experiment [1] is 1 to 10 nM; at His-BIR3 (241-356, XIAP) it was less than 10 nM.
The like results for `CN[C@@H](C)C(=O)NC(C(=O)N1C[C@@H]2C[C@H]1C(=O)N[C@@H](Cc1ccc3ccccc3c1)C(=O)N[C@H](c1nc(=O)o[nH]1)Cc1ccc(cc1)OCc1cn(nn1)[C@H]1C[C@@H](C(=O)N[C@@H](Cc3ccc4ccccc4c3)C(=O)N[C@H](C(=O)O)Cc3ccc(cc3)OCc3cn2nn3)N(C(=O)[C@@H](NC(=O)[C@H](C)NC)C(C)(C)C)C1)C(C)(C)C` (stereo partly shown) [Compound 1047] were, in that order, not above 1 nM and less than 10 nM.
Regarding `CN[C@@H](C)C(=O)N[C@H](C(=O)N1C[C@@H]2C[C@H]1C(=O)N[C@@H](Cc1ccc3ccccc3c1)C(=O)N[C@H](C(=O)O)Cc1ccc(cc1)OCc1cn(nn1)[C@H]1C[C@@H](C(=O)N[C@@H](Cc3ccc4ccccc4c3)C(=O)N[C@H](C(=O)NCc3cc(F)c(O)c(F)c3)Cc3ccc(cc3)OCc3cn2nn3)N(C(=O)[C@@H](NC(=O)[C@H](C)NC)C(C)(C)C)C1)C(C)(C)C` [Compound 1041], the IC50 in experiment [1] is 1 to 10 nM; on His-BIR3 (241-356, XIAP), 10 to 100 nM.
As to `CN[C@@H](C)C(=O)N[C@H](C(=O)N1C[C@@H]2C[C@H]1C(=O)N[C@@H](Cc1ccc3ccccc3c1)C(=O)N[C@H](C(=O)O)Cc1ccc(cc1)OCc1cn(nn1)[C@H]1C[C@@H](C(=O)N[C@@H](Cc3ccc4ccccc4c3)C(=O)N[C@H](C(=O)N[C@@H](CCCCN)C(=O)N[C@@H](CO)C(=O)O)Cc3ccc(cc3)OCc3cn2nn3)N(C(=O)[C@@H](NC(=O)[C@H](C)NC)C(C)(C)C)C1)C(C)(C)C` [Compound 1034], the IC50 in experiment [1] is more than 10 nM; against His-BIR3 (241-356, XIAP), 10 to 100 nM.
For the compound `CN[C@@H](C)C(=O)N[C@H](C(=O)N1C[C@@H]2C[C@H]1C(=O)N[C@@H](Cc1ccc3ccccc3c1)C(=O)N[C@H](C(=O)O)Cc1ccc(cc1)OCCCc1cn(nn1)[C@H]1C[C@@H](C(=O)N[C@@H](Cc3ccc4ccccc4c3)C(=O)N[C@H](C(=O)O)Cc3ccc(cc3)OCCCc3cn2nn3)N(C(=O)[C@@H](NC(=O)[C@H](C)NC)C(C)(C)C)C1)C(C)(C)C` [Compound 1011], the IC50 in experiment [1] is 1 to 10 nM; at His-BIR3 (241-356, XIAP) it was less than 10 nM.
Turning to `CN[C@@H](C)C(=O)N[C@H](C(=O)N1C[C@@H]2C[C@H]1C(=O)N[C@@H](Cc1ccc3ccccc3c1)C(=O)N[C@H](C(=O)O)Cc1ccc(cc1)OCc1cn(nn1)[C@H]1C[C@@H](C(=O)N[C@@H](Cc3ccc4ccccc4c3)C(=O)N[C@H](C(=O)N3CC(C(=O)O)C3)Cc3ccc(cc3)OCc3cn2nn3)N(C(=O)[C@@H](NC(=O)[C@H](C)NC)C(C)(C)C)C1)C(C)(C)C` [Compound 1026], the half-maximal inhibitory concentration (IC50) fell in the range of 1 to 10 nM in experiment [1] and 10 to 100 nM on His-BIR3 (241-356, XIAP).
The like results for `CN[C@@H](C)C(=O)N[C@H](C(=O)N1C[C@@H]2C[C@H]1C(=O)N[C@@H](Cc1ccc3ccccc3c1)C(=O)N[C@H](C(=O)O)Cc1ccc(cc1)OCc1cn(nn1)[C@H]1C[C@@H](C(=O)N[C@@H](Cc3ccc4ccccc4c3)C(=O)N[C@H](C(=O)O)Cc3ccc(cc3)OCc3cn2nn3)N(C(=O)[C@@H](NC(=O)[C@H](C)NC)C23CC4CC(CC(C4)C2)C3)C1)C12CC3CC(CC(C3)C1)C2` [Compound 1008] were, in that order, not above 1 nM and 10 to 100 nM.
